Measured values reported in patent publication EP4417602A1, “SUBSTITUTED PYRAZOLE CARBOXAMIDES, SALTS THEREOF AND THEIR USE AS HERBICIDALLY ACTIVE SUBSTANCES” (Bayer AG, priority 2023, dated 2024).

Assays:
ORYZA [1] = experiment: F. Post-emergence effects on crop plants (Tables F); format: in vivo, Oryza sativa; conditions: application rate 80 g/ha, crop plant
Source text: (§1) Seeds of mono- and dicotyledonous weed plants and crop plants were sown, in plastic or organic planting pots, in sandy loam, covered with soil and grown in a greenhouse under controlled growth conditions. 2 to 3 weeks after sowing, the test plants were sprayed in the single-leaf stage. The compounds according to the invention, formulated in form of wettable powders (WP) or as emulsifiable concentrates (EC), were sprayed onto the green plant parts as aqueous suspension or emulsion, with the addition of 0.5% of an additive, at an application rate of 6001 of water/ha (converted). The test plants were placed in the greenhouse for ca. 3 weeks under optimum growth conditions, and then the effect of the preparations was assessed visually in comparison with untreated controls (herbicidal effect in percent (%): 100% effect = plants have died off, 0% effect = as control plants). Tables F1 to F5 below show the effects of selected compounds of the general formula (I) according to table 1 on various crop plants and an application rate corresponding to 320 g/ha or below obtained by the experimental procedure mentioned above. Table […]: post-emergence activity at 320g/ha against ZEAMX in %

POAAN [2] = experiment: A. Herbicidal pre-emergence action on harmful plants (Tables A); format: in vivo, Poa annua
In short: (§2)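 Greenhouse pre-emergence test: compound applied to the soil surface at 1280 g/ha or below, and herbicidal effect rated visually at ca. 3 weeks on a 0–100% scale against untreated plants.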

MATIN = experiment: as above; format: in vivo, Matricaria inodora; conditions: visual grading after ca. 3 weeks vs untreated controls, 100% = plants have died off, 0% = as control plants
In short: as §2

BRSNW [3] = experiment: F. Post-emergence effects on crop plants (Tables F); format: in vivo, Brassica napus; conditions: application rate 80 g/ha, crop plant
Source text: as §1

GLXMA [4] = experiment: D. Pre-emergence effects on crop plants (Tables D); format: in vivo, Glycine max; conditions: crop plant
Source text: (§3) Seeds of mono- and dicotyledonous weed plants and crop plants were sown, in plastic or organic planting pots, in sandy loam and covered with soil. The compounds according to the invention, formulated in the form of wettable powders (WP) or as emulsifiable concentrates (EC), were applied to the surface of the covering soil as aqueous suspension or emulsion, with the addition of 0.5% of an additive, at an application rate of 6001 of water/ha (converted).
(§4) Following treatment, the pots were placed in a greenhouse and kept under optimum growth conditions for the test plants. The visual grading of the damage to the test plants was carried out after ca. 3 weeks in comparison to untreated controls (herbicidal effect in percent (%): 100% effect = plants have died off, 0% effect = as control plants).
(§5) Tables D1 to D5 below show the effects of various compounds of the general formula (I) according to Table 1 on various crop plants and an application rate corresponding to 320 g/ha or below obtained by the experimental procedure mentioned above in Biological Examples, Section C. Table D1a: pre-emergence activity at 320g/ha against ZEAMX in %

ECHCG [5] = experiment: C. Herbicidal pre-emergence action, weed and crop plants (Tables C); format: in vivo, Echinochloa crus-galli; conditions: application rate 320 g/ha; Table C6a
Source text: (§6) Seeds of mono- and dicotyledonous weed plants and crop plants were sown, in plastic or organic planting pots, in sandy loam and covered with soil. The compounds according to the invention, formulated in the form of wettable powders (WP) or as emulsifiable concentrates (EC), were applied to the surface of the covering soil as aqueous suspension or emulsion, with the addition of 0.5% of an additive, at an application rate of 6001 of water/ha (converted). Following treatment, the pots were placed in a greenhouse and kept under optimum growth conditions for the test plants. The visual grading of the damage to the test plants was carried out after ca. 3 weeks in comparison to untreated controls (herbicidal effect in percent (%): 100% effect = plants have died off, 0% effect = as control plants). Tables C1 to C12 below show the effects of selected compounds of the general formula (I) according to table 1 on various harmful plants and an application rate corresponding to 320 g/ha or below obtained by the experimental procedure mentioned above. Table C1: pre-emergence activity at 320g/ha against KCHSC in %

DIGSA [6] = experiment: as above; format: in vivo, Digitaria sanguinalis
Source text: as §6

VIOTR = experiment: as above; format: in vivo, Viola tricolor; conditions: application rate 320 g/ha; Table C12a
Source text: as §6

TRZAS = experiment: F. Post-emergence effects on crop plants (Tables F); format: in vivo, Triticum aestivum; conditions: application rate 80 g/ha, crop plant
Source text: as §1

ZEAMX = experiment: as above; format: in vivo, Zea mays; conditions: application rate 80 g/ha, crop plant
Source text: as §1

GLXMA [7] = experiment: as above; format: in vivo, Glycine max; conditions: application rate 320 g/ha, crop plant
Source text: as §1

STEME = experiment: A. Herbicidal pre-emergence action on harmful plants (Tables A); format: in vivo, Stellaria media; conditions: visual grading after ca. 3 weeks vs untreated controls, 100% = plants have died off, 0% = as control plants
In short: as §2

ORYZA [8] = experiment: D. Pre-emergence effects on crop plants (Tables D); format: in vivo, Oryza sativa; conditions: crop plant; application rate 80 g/ha; Table D3b
Source text: as §3, §4, §5

LOLRI [9] = experiment: A. Herbicidal pre-emergence action on harmful plants (Tables A); format: in vivo, Lolium rigidum; conditions: visual grading after ca. 3 weeks vs untreated controls, 100% = plants have died off, 0% = as control plants
In short: as §2

LOLRI [10] = experiment: C. Herbicidal pre-emergence action, weed and crop plants (Tables C); format: in vivo, Lolium rigidum; conditions: application rate 320 g/ha; Table C7a
Source text: as §6

SETVI = experiment: A. Herbicidal pre-emergence action on harmful plants (Tables A); format: in vivo, Setaria viridis; conditions: visual grading after ca. 3 weeks vs untreated controls, 100% = plants have died off, 0% = as control plants
In short: as §2

ECHCG [11] = experiment: as above; format: in vivo, Echinochloa crus-galli; conditions: visual grading after ca. 3 weeks vs untreated controls, 100% = plants have died off, 0% = as control plants
In short: as §2

BRSNW [12] = experiment: D. Pre-emergence effects on crop plants (Tables D); format: in vivo, Brassica napus; conditions: application rate 80 g/ha, crop plant
Source text: as §3, §4, §5

ALOMY = experiment: A. Herbicidal pre-emergence action on harmful plants (Tables A); format: in vivo, Alopecurus myosuroides
In short: as §2

ABUTH = experiment: as above; format: in vivo, Abutilon theophrasti; conditions: application rate 1280 g/ha; visual grading after ca. 3 weeks vs untreated controls; 100% = plants have died off, 0% = as control plants
Source text: Seeds of mono- and dicotyledonous weed plants were sown in plastic pots (double sowings with one species of mono- and one species of dicotyledonous weed plants per pot), in sandy loam, and covered with soil. The compounds according to the invention, formulated in the form of wettable powders (WP) or as emulsifiable concentrates (EC), were applied to the surface of the covering soil as aqueous suspension or emulsion, with the addition of 0.5% of an additive, at an application rate of 6001 of water per hectare (converted). Following treatment, the pots were placed in a greenhouse and kept under optimum growth conditions for the test plants. The visual grading of the damage to the test plants was carried out after ca. 3 weeks in comparison to untreated controls (herbicidal effect in percent (%): 100% effect = plants have died off, 0% effect = as control plants). Tables A1 to A12, below, show the effects of selected compounds of the general formula (I) according to table 1 on various harmful plants and an application rate corresponding to 1280 g/ha or below obtained by the experimental procedure mentioned above. Table A1: pre-emergence activity at 1280g/ha against ABUTH in %

ECHCG [13] = experiment: B. Herbicidal post-emergence action on harmful plants (Tables B); format: in vivo, Echinochloa crus-galli; conditions: application rate 1280 g/ha; Table B2a
In short: (§7)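 Activity was scored visually as % damage (100% = dead, 0% = like untreated) about 3 weeks after treatment. Plants at the one-leaf stage, 2-3 weeks old, were sprayed with WP/EC formulations plus 0.5% additive (600 L/ha water, up to 1280 g/ha). Plants were grown in sandy loam in a greenhouse.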

DIGSA [14] = experiment: A. Herbicidal pre-emergence action on harmful plants (Tables A); format: in vivo, Digitaria sanguinalis
In short: as §2

AMARE = experiment: as above; format: in vivo, Amaranthus retroflexus
In short: as §2

VERPE = experiment: as above; format: in vivo, Veronica persica; conditions: application rate 1280 g/ha; Table A11
In short: as §2

POAAN [15] = experiment: B. Herbicidal post-emergence action on harmful plants (Tables B); format: in vivo, Poa annua
In short: as §7

[16] = application rate 80 g/ha, Table A7c
[17] = application rate 320 g/ha, Table A7b
[18] = application rate 1280 g/ha, visual grading after ca. 3 weeks vs untreated controls, 100% = plants have died off, 0% = as control plants

SMILES: COCc1nn(C)cc1C(=O)N1CCCC1Cc1cc(F)ccc1F (racemic) [Example I-001]
- post-emergence activity against ORYZA in % (ORYZA [1]): 0%
- pre-emergence activity against POAAN (POAAN [2]; [16]): 100%
- pre-emergence activity against POAAN (POAAN [2]; [17]): 100%
- pre-emergence activity against POAAN (POAAN [2]; [18]): 100%
- pre-emergence activity against MATIN (MATIN; application rate 1280 g/ha): 90%
- post-emergence activity against BRSNW in % (BRSNW [3]): 10%
- pre-emergence activity against GLXMA (GLXMA [4]; application rate 80 g/ha, Table D4b): 0%
- pre-emergence activity against GLXMA (GLXMA [4]; application rate 320 g/ha, Table D4a): 20%
- pre-emergence activity against ECHCG (ECHCG [5]): 90%
- pre-emergence activity against DIGSA (DIGSA [6]; application rate 80 g/ha, Table C5b): 90%
- pre-emergence activity against DIGSA (DIGSA [6]; application rate 320 g/ha, Table C5a): 100%
- pre-emergence activity against VIOTR (VIOTR): 80%
- post-emergence activity against TRZAS in % (TRZAS): 10%
- post-emergence activity against ZEAMX in % (ZEAMX): 0%
- post-emergence activity against GLXMA in % (GLXMA [7]): 20%
- pre-emergence activity against STEME (STEME; application rate 320 g/ha): 90%
- pre-emergence activity against STEME (STEME; application rate 1280 g/ha): 90%
- pre-emergence activity against ORYZA (ORYZA [8]): 20%
- pre-emergence activity against LOLRI (LOLRI [9]; application rate 1280 g/ha): 100%
- pre-emergence activity against LOLRI (LOLRI [10]): 80%
- pre-emergence activity against SETVI (SETVI; application rate 320 g/ha): 90%
- pre-emergence activity against SETVI (SETVI; application rate 1280 g/ha): 100%
- pre-emergence activity against ECHCG (ECHCG [11]; application rate 320 g/ha): 100%
- pre-emergence activity against ECHCG (ECHCG [11]; application rate 1280 g/ha): 100%
- pre-emergence activity against BRSNW in % (BRSNW [12]): 0%

SMILES: COCc1nn(C)cc1C(=O)N1CCCC1Cc1cc(F)ccc1F (single isomer, unassigned) [Example I-071]
- pre-emergence activity against POAAN (POAAN [2]; [16]): 100%
- pre-emergence activity against POAAN (POAAN [2]; [17]): 100%
- pre-emergence activity against POAAN (POAAN [2]; [18]): 100%
- pre-emergence activity against MATIN (MATIN; application rate 320 g/ha): 90%
- pre-emergence activity against MATIN (MATIN; application rate 1280 g/ha): 90%
- pre-emergence activity against ALOMY (ALOMY; application rate 320 g/ha, Table A9b): 90%
- pre-emergence activity against ALOMY (ALOMY; application rate 1280 g/ha, Table A9a): 90%
- pre-emergence activity against ABUTH (ABUTH): 90%
- post-emergence activity against ECHCG (ECHCG [13]): 90%
- pre-emergence activity against DIGSA (DIGSA [14]; application rate 80 g/ha, Table A12c): 90%
- pre-emergence activity against DIGSA (DIGSA [14]; application rate 320 g/ha, Table A12b): 100%
- pre-emergence activity against DIGSA (DIGSA [14]; application rate 1280 g/ha, Table A12a): 100%
- pre-emergence activity against AMARE (AMARE; application rate 320 g/ha, Table A8b): 90%
- pre-emergence activity against AMARE (AMARE; [18]): 90%
- pre-emergence activity against VERPE (VERPE): 90%
- pre-emergence activity against STEME (STEME; application rate 320 g/ha): 90%
- pre-emergence activity against STEME (STEME; application rate 1280 g/ha): 90%
- pre-emergence activity against LOLRI (LOLRI [9]; application rate 80 g/ha): 90%
- pre-emergence activity against LOLRI (LOLRI [9]; application rate 320 g/ha): 100%
- pre-emergence activity against LOLRI (LOLRI [9]; application rate 1280 g/ha): 100%
- post-emergence activity against POAAN (POAAN [15]; application rate 320 g/ha, Table B7b): 90%
- post-emergence activity against POAAN (POAAN [15]; application rate 1280 g/ha, Table B7a): 90%
- pre-emergence activity against SETVI (SETVI; application rate 80 g/ha): 90%
- pre-emergence activity against SETVI (SETVI; application rate 320 g/ha): 90%
- pre-emergence activity against SETVI (SETVI; application rate 1280 g/ha): 90%
- pre-emergence activity against ECHCG (ECHCG [11]; application rate 80 g/ha): 90%
- pre-emergence activity against ECHCG (ECHCG [11]; application rate 320 g/ha): 100%
- pre-emergence activity against ECHCG (ECHCG [11]; application rate 1280 g/ha): 100%
